Experimental data from EP0702683B1, “06-SUBSTITUTED GUANINE DERIVATIVES, A PROCESS FOR THEIR PREPARATION AND THEIR USE IN TREATING TUMOUR CELLS” (Cancer Research Technology Limited, priority 1993, dated 1994).
Like-named read-outs stand apart in the source and are kept apart here.

Legend:
[1] = Stability of inactivators at 37°C (spectrophotometric half life); assay type: physicochemical
Experimental: Inactivators (10mM in DMSO) were diluted to 0.1mM in prewarmed degassed buffer I (1mM EDTA, 50mM Tris pH 8.3) or PBS (pH 7-7.2). […] Samples were immediately transferred to a CARY13 spectrophotometer (cuvette block held at 37°C) and scanned at an appropriate wavelength (according to the spectral properties of the compound) at 3-10 minute intervals for up to 80 hours. The results were expressed as percentage absorbance change versus time and T1/2 values (half life) extrapolated from this.

[2] = test system: Raji cells; test: Sensitization of Raji cells to BCNU (XTT assay); assay type: cell-based, human; conditions: BCNU, 2 hour pretreatment; for Raji sensitization (D90.^C/D90.^I) 0.5µM: inactivator 0.5µM; for Raji sensitization (D90.^C/D90.^I) 1.0µM: inactivator 1.0µM; for Raji sensitization (D90.^C/D90.^I) O.1µM: inactivator O.1µM
Experimental: (§1) Following a 2 hour incubation at 37°C, medium containing either increasing doses of BCNU, temozolomide or equivalent vehicle was added and the cells allowed to grow for 6 days. At this time XTT solution was added and the cells incubated for a further 4 hours at 37°C. The resulting red/orange formazan reaction product was quantified by measuring absorption at 450nm on a microtitre platereader.

[3] = test system: A375M cells; test: Sensitization of A375M cells to BCNU (MTT assay); assay type: cell-based, human; conditions: for A375M sensitization (D50.^C/D50.^I) 1.0uM: inactivator 1.0uM 2 hours before; for A375M sensitization (D50.^C/D50.^I) 0.5uM: inactivator 0.5uM 2 hours before; for A375M sensitization (D50.^C/D50.^I) 5.0uM: inactivator 5.0uM 2 hours before
Experimental: Sensitization of A375M cells to the cytotoxic effects of BCNU was analysed by MTT assay ^24 differing from the XTT assay described above as follows. […] After 6 days MTT solution (4mg/ml) was added and cells incubated for 3 hours at 37°C. Medium was aspirated and the resulting purple formazan crystals were solubilised in DMSO (120μl) and cell viability was quantified by measuring absorption at 540nm using a microtitre plate reader.

[4] = molecular target: T1, ATase (Homo sapiens, UniProt P16455); test: In vitro ATase inactivation assay with purified recombinant human ATase; assay type: biochemical; design: made in house
T1 sequence (P16455 1-207): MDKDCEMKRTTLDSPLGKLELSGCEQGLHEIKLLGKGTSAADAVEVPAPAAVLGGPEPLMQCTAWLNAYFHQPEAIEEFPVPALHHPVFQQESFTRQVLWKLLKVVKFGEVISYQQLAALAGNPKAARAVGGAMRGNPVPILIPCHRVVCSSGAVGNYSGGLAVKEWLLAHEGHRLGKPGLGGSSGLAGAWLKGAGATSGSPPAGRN
Experimental: The cDNA cloning and overexpression of the human ATase has been reported previously^23. Purification of the recombinant proteins was achieved either by affinity chromatography through a DNA-cellulose column as described by Wilkinson et al.,^25, 26, or by DEAE-cellulose ion-exchange chromatography. For the latter, the ATase protein was partially purified by ammonium sulphate precipitation (30 - 60%) and dialysed against 10 mM Tris-HCl pH 7.5, 1 mM DTT, 2 mM EDTA, 10% glycerol, before loading on a DEAF-cellulose column. The ATase was then eluted with a 0-0.1 M NaCl gradient.
Compounds to be tested were dissolved in DMSO to a final concentration of 10 mM and diluted just before use in buffer I containing 1 mg/ml bovine serum albumin (IBSA). Recombinant ATase was diluted in IBSA and titrated in order that the reaction be conducted under ATase, and not substrate, limiting conditions. In each assay, fixed amounts of ATase (60-75 fmol) were incubated with varying amounts of 0^6-benzylguanine, or test compound in a total volume of 200 µl of IBSA containing 10 µg of calf thymus DNA at 37°C for 1 hour. The [^3H]-methylated-DNA substrate (100 µl containing 6.7 µg of DNA and 100 fmol of 0^6-methylguanine) was added and incubation continued at 37° for 1 hour, until the reaction was completed. Following acid hydrolysis of the DNA as previously described^21 the [^3H]-methylated protein was recovered and quantitated by liquid scintillation counting. Samples were typically assayed in duplicate and experiments repeated several times. I50 is the concentration of inactivator required to produce a 50% reduction in ATase activity.

[5] = molecular target: T1, ATase; test: Inactivation of ATase activity in Raji cells; assay type: cell-based; design: endogenous in cells; host or cells: Raji; conditions: Raji cells, 2 hours at 37°C; read-out: Raji I50
Experimental: (§2) Mammalian cells were cultured under standard conditions. For example, Raji (a human lymphoblastoid cell line from a Burkitt's lymphoma) cells were grown in suspension culture in RPMI medium supplemented with 10% horse serum. A375M cells are human melanoma cells from which the xenografts described below were established following subcutaneous injection into nude mice: WiDr cells are a human colon carcinoma cell line: Hamster+120 cells are a mitozolomide-selected subline of a Chinese hamster lung fibroblast V79 cell line called RJKO: Yoshida cells are a rat carcinosarcoma cell line and YRbus is a busulphan resistant subline thereof: XP cells are an SV40-transformed fibroblast cell line originally from the skin of a Xeroderma pigmentosum patient, pHMGhAT2b cells are a clone of these cells that have been transfected with a mammalian cell expression vector containing the human ATase cDNA and pHMGla cells are a clone that have been transfected with the expression vector only (i.e. one not containing the human ATase cDNA). Cell pellets were resuspended in cold (4°C) buffer I containing 2 µg/ml leupeptin and sonicated for 10 seconds at 12 µ peak to peak distance. After cooling in ice, the cells were sonicated for a further 10 seconds at 18 µ. Immediately after sonication, 0.01 volumes of 8.7 mg/ml phenylmethanesulphonylfluoride in ethanol was added and the sonicates centrifuged at 15 000 g for 10 minutes at 4°C to pellet cell debris. The supernatant was kept for determination of ATase activity (see below).
(§3) Cells were diluted to 10^6/ml in culture medium containing either the appropriate concentration of inactivator or an equivalent volume of vehicle (DMSO). Following incubation at 37°C for 2 hours the cells were harvested by centrifugation, washed twice with PBS and the resulting cell pellets (between 1-2 x 10^7 per pellet) stored at -20°C.

[6] = molecular target: T2, ATase (Rattus norvegicus, UniProt P24528); test: Inactivation of ATase activity in Yoshida cells; assay type: cell-based
T2 construct: endogenous in cells; host or cells: Yoshida
T2 sequence (P24528 1-209): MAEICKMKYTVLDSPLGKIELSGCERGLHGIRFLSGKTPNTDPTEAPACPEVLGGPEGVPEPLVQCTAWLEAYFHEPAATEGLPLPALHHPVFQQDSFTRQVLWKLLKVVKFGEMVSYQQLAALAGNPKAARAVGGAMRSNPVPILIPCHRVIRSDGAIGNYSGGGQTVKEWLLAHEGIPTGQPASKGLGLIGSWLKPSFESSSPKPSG
Experimental: as §2
as §3, with “-20°C. ATase activity was determined as described above, in duplicate sonicated cell extracts and expressed as the percentage activity remaining based on that present in the untreated controls (for example 350-450 fm/mg in Raji cells).” for “-20°C.”

[7] = test system: Raji cells; test: Sensitization of Raji cells to temozolomide (XTT assay); assay type: cell-based, human; conditions: inactivator 0.1 to 5.0µM, Figures 3 and 4, in words
Experimental: as §1

[8] = Toxicity of inactivator in combination with BCNU in xenograft-bearing mice (survival); assay type: in vivo, nude mice; conditions: mouse, in vivo, ip; in combination with BCNU, Figs. 9-13; read-out: death of treated animals
Experimental: 0X6 OPT, England (OLAC mice). […] For this reason lower doses were administered.
Xenograft tumour measurements were taken every 1-2 days by workers using digital calipers. Tumour volume was calculated using the formula (h x w x 1) π/6. The experimental animals were also weighed every 1-2 days. Measurements continued until tumours in the control animals reached the maximum allowable volume (i.e. 1cm x 1cm x 1cm).

[9] = test system: human bone marrow cells; test: Sensitization of bone marrow cells to temozolomide (GM-CFC assay); assay type: cell-based; conditions: three samples tested (BeG: all three; B.4205: two of these), Fig. 14, in words
Source text: For the granulocyte/macrophage colony-forming cell (GM-CFC) assay primary human bone marrow samples were obtained from patients undergoing cardiothoracic surgery. […] The colonies represented precursor cells of the granulocyte/macrophage lineage (huGM-CFC). Survival was expressed as a % of the number of colonies at zero dose temozolomide.

[10] = Inactivator toxicity in bone marrow cells (GM-CFC colonies, inactivator alone); assay type: cell-based, human; conditions: human, bone marrow gm-cfc, inactivator 10uM, read-out: No. of colonies as % of control (ie no inactivator)
Source text: For the granulocyte/macrophage colony-forming cell (GM-CFC) assay primary human bone marrow samples were obtained from patients undergoing cardiothoracic surgery. […] The colonies represented precursor cells of the granulocyte/macrophage lineage (huGM-CFC). […]

[11] = 0.1mM in PBS (pH 7-7.2), read-out: T1/2(h) in PBS (converted)
[12] = 0.1mM in buffer I (1mM EDTA, 50mM Tris pH 8.3), read-out: T1/2(h) in Buffer I (converted)

Structure (SMILES)	half-life at 100 µM [1, 11] [h]	Raji sensitization (D90.^C/D90.^I) 0.5µM [2]	Raji sensitization (D90.^C/D90.^I) 1.0µM [2]	Raji sensitization (D90.^C/D90.^I) O.1µM [2]	A375M sensitization (D50.^C/D50.^I) 1.0uM [3]	IC50 [4] [nM]	IC50 [5] [nM]	half-life at 100 µM [1, 12] [h]	A375M sensitization (D50.^C/D50.^I) 0.5uM [3]	A375M sensitization (D50.^C/D50.^I) 5.0uM [3]	IC50 [6] [nM]	dose response of sensitization of Raji cells to temozolomide [7]	mortality [8] [%]	sensitization of GM-CFCs in human bone marrow samples to the toxic effects of temozolomide [9]	viability at 216 h, 10 µM ([10]; Patient A) [%]	viability at 216 h, 10 µM ([10]; Patient B) [%]	viability at 216 h, 10 µM ([10]; Patient C) [%]	viability at 216 h, 10 µM ([10]; Patient D) [%]	viability at 216 h, 10 µM ([10]; Patient E) [%]
Cc1ccsc1COc1nc(N)nc2[nH]cnc12 [B.4222, O^6-(3-methylthenyl)guanine]	> 16	1.9	2.1	1.4	1.4	650	470	–	–	–	–	–	–	–	–	–	–	–	–
Nc1nc(OCc2cc3ccccc3s2)c2nc[nH]c2n1 [B.4226, O^6-(2-benzo[b]thienylmethyl)guanine]	6.7	1.6	10.0	1.6	–	30	60	9.7	3.8	4.5	–	–	–	–	–	–	–	–	–
COC(=O)c1ccc(COc2nc(N)nc3[nH]cnc23)o1 [B.4229, O^6-(5-methoxycarbonylfurfuryl)guanine]	> 16	2.1	2.5	1.2	1.8	90	250	–	–	–	–	–	–	–	–	–	–	–	–
Nc1nc(OCc2ccc(C(=O)O)o2)c2nc[nH]c2n1 [B.4234, O^6-(5-carboxyfurfuryl)guanine]	> 16	1.0	1.0	1.0	0.8	60000	> 1000	–	–	–	–	–	–	–	–	–	–	–	–
Nc1nc(OCc2ccccc2)c2nc[nH]c2n1 [O^6-benzylguanine, reference compound]	> 16	*2.0 ± 0.4	*3.8 ± 1.8	*1.9 ± 0.7	2.3	–	–	> 64	3.1	4.2	140	clear dose response	≤ 70	sensitised	95	46	88	88	89
